Test results from ChEMBL document CHEMBL6078689, “Discovery of novel biaryl urea derivatives against IL-1β release with low toxicity based on NEK7 inhibitor” (Eur J Med Chem, 2025).
The source made the active and inactive calls. The calls are words filed in the database; no cut-off is given here.

Columns and labels:
[1] = Cytotoxicity against C57BL/6 mouse BMDM cells assessed as cell viability at 0.1 uM incubated for 4 hrs by CCK-8 assay relative to control; type: toxicity, cell-based; conditions: bone marrow-derived macrophages (BMDM cells), read-out: Activity
[2] = tested on: BMDM; experiment: Inhibition of NLRP3 inflammasome activation in LPS-induced C57BL/6 mouse BMDM cells assessed as reduction in IL-1beta release at 0.1 uM preincubated with LPS for 1 hrs followed by compound addition and measured after 2 hrs by ELISA relative to control; type: cell-based
[3] = biological target: Serine/threonine-protein kinase Nek7 (Homo sapiens, UniProt Q8TDX7); experiment: Inhibition of N-terminal GST-tagged full-length recombinant human NEK7 extracted from baculovirus infected in Sf9 cells preincubated for 20 mins followed by [32P]-ATP addition and measured after 2 hrs
[4] = Cytotoxicity against C57BL/6 mouse BMDM cells assessed as cell viability incubated for 4 hrs by CCK-8 assay; type: toxicity, cell-based; conditions: bone marrow-derived macrophages (BMDM cells)
[5] = Inhibition of NLRP3 inflammasome activation in LPS-induced C57BL/6 mouse BMDM cells assessed as reduction in IL-1beta release preincubated with LPS for 1 hrs followed by compound addition and measured after 2 hrs by ELISA; type: cell-based; conditions: C57BL/6, BMDM
[6] = Selectivity index, ratio of CC50 for C57BL/6 mouse BMDM cells to IC50 for Inhibition of NLRP3 inflammasome activation in LPS-induced C57BL/6 mouse BMDM cells assessed as reduction in IL-1beta release; type: toxicity, cell-based; conditions: bone marrow-derived macrophages (BMDM cells), read-out: Ratio CC50/IC50
[7] = tested on: BMDM; experiment: Binding affinity to NEK7 in LPS-primed C57BL/6 mouse BMDM cells assessed as thermal stabilization preincubated with LPS for 1 hrs followed by compound addition and incubated for 2 hrs under 48 to 53 degreeC by CETSA; type: cell-based
[8] = biological target: NLRP3-NEK7 (Mus musculus) (UniProt Q8R4B8+Q9ES74); experiment: Inhibition of NLRP3/NEK7 protein-protein interaction in LPS-induced C57BL/6 mouse BMDM cells by co-immunoprecipitation based Western blot analysis; type: cell-based
NLRP3-NEK7 (Mus musculus), sequence (Q8R4B8 whole entry, looked up): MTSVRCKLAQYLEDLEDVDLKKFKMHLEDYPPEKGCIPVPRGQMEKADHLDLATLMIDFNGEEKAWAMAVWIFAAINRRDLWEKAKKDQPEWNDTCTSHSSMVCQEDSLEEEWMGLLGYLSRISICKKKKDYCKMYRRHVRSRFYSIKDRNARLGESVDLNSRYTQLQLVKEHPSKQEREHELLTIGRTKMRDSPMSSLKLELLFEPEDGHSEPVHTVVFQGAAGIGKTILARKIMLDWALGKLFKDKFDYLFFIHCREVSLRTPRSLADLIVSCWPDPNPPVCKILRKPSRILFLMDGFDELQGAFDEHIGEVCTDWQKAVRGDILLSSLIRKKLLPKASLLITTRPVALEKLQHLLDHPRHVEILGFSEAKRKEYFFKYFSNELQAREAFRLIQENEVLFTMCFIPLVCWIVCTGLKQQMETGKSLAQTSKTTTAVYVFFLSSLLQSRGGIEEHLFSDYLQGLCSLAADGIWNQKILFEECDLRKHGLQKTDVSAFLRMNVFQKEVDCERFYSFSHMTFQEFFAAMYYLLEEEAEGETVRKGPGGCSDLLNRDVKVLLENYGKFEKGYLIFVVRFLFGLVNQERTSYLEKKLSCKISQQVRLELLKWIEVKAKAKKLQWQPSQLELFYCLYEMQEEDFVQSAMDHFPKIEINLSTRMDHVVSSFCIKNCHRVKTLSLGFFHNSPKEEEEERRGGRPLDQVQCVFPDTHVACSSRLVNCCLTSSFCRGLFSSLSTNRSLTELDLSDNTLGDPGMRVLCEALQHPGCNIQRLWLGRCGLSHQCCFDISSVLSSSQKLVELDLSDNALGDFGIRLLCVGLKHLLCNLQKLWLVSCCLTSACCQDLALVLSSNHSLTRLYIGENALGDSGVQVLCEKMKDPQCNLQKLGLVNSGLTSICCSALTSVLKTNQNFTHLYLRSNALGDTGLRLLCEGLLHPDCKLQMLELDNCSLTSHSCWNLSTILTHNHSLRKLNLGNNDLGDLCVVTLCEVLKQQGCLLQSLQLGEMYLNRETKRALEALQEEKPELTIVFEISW
NLRP3-NEK7 (Mus musculus), sequence (Q9ES74 whole entry, looked up): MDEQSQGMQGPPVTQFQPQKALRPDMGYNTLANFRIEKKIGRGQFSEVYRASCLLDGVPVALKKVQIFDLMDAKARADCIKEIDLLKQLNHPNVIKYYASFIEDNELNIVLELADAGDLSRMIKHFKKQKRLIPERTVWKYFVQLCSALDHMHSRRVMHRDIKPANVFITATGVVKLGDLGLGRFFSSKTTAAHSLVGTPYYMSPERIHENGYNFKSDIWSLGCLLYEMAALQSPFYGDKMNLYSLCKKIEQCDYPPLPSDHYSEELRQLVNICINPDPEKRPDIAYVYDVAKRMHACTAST

Serine/threonine-protein kinase Nek7, sequence (Q8TDX7 whole entry): as the sequence (Q9ES74 whole entry, looked up) above, with T14P, S52A, D150E, I273M, I285V, A286T, T302S counted along it

CN1CCN(Cc2ccc(NC(=O)Nc3ccc(-c4cncnc4N)cc3F)cc2C(F)(F)F)CC1
viability at 4 h, 0.1 µM [1]: 106% | inhibition [2]: -1.08%

CN1CCN(Cc2ccc(NC(=O)Nc3ccc(-c4cccc(N)n4)cc3F)cc2C(F)(F)F)CC1
viability at 4 h, 0.1 µM [1]: 109%

COc1ccc(-c2ccc(NC(=O)Nc3ccc(CN4CCN(C)CC4)c(C(F)(F)F)c3)c(F)c2)cn1
viability at 4 h, 0.1 µM [1]: 104%

CN1CCN(Cc2ccc(NC(=O)Nc3ccc(-c4cnc(N)c5ccccc45)cc3F)cc2C(F)(F)F)CC1
viability at 4 h, 0.1 µM [1]: 108% | inhibition [2]: -7.76%

CN1CCN(Cc2ccc(NC(=O)Nc3ccc(-c4cn(C5CC5)c5ncnc(N)c45)cc3F)cc2C(F)(F)F)CC1
viability at 4 h, 0.1 µM [1]: 17.2% | IC50 [3]: < 100 nM

CC(=O)Nc1ccc(-c2ccc(NC(=O)Nc3cccc(C(F)(F)F)c3)c(F)c2)cn1
viability at 4 h, 0.1 µM [1]: 96.4% | inhibition [2]: -7.98%

CNc1ccc(-c2ccc(NC(=O)Nc3ccc(CN4CCN(C)CC4)c(C(F)(F)F)c3)c(F)c2)cn1
viability at 4 h, 0.1 µM [1]: 95.5% | inhibition [2]: 41.5%

CN1CCN(Cc2ccc(NC(=O)Nc3ccc(-c4cccnc4N)cc3F)cc2C(F)(F)F)CC1
viability at 4 h, 0.1 µM [1]: 65%

CC(=O)Nc1ccc(-c2ccc(C(=O)Nc3ccc(CN4CCN(C)CC4)c(C(F)(F)F)c3)c(F)c2)cn1
viability at 4 h, 0.1 µM [1]: 90.4%

CN1CCN(Cc2ccc(NC(=O)Nc3ccc(-c4ccc(N)cn4)cc3F)cc2C(F)(F)F)CC1
viability at 4 h, 0.1 µM [1]: 104%

CN1CCN(Cc2ccc(NC(=O)Nc3ccc(-c4ccnc(N)c4)cc3F)cc2C(F)(F)F)CC1
viability at 4 h, 0.1 µM [1]: 112% | inhibition [2]: 3.67%

CN1CCN(Cc2ccc(NC(=O)Nc3ccc(-c4cc5ccccc5nc4N)cc3F)cc2C(F)(F)F)CC1
viability at 4 h, 0.1 µM [1]: 86%

CN1CCN(Cc2ccc(NC(=O)Nc3ccc(-c4nc(N)cc5ccccc45)cc3F)cc2C(F)(F)F)CC1
viability at 4 h, 0.1 µM [1]: 122% | inhibition [2]: 30.6%

CN1CCN(Cc2ccc(NC(=O)Nc3ccc(-c4ccc(N)nc4)cc3F)cc2C(F)(F)F)CC1
viability at 4 h, 0.1 µM [1]: 86% | inhibition [2]: 82.3% | CC50 at 4 h [4]: 247 nM | IC50 [5]: 30 nM | selectivity ratio [6]: 8.26

CC(=O)Nc1ccc(-c2ccc(NC(=O)c3ccc(CN4CCN(C)CC4)c(C(F)(F)F)c3)c(F)c2)cn1
viability at 4 h, 0.1 µM [1]: 92.6% | inhibition [2]: 0%

CN1CCN(Cc2ccc(NC(=O)Nc3ccc(-c4ncc(N)cn4)cc3F)cc2C(F)(F)F)CC1
viability at 4 h, 0.1 µM [1]: 71.8%

CN1CCN(Cc2ccc(NC(=O)Nc3ccc(-c4nc(N)c5ccccc5n4)cc3F)cc2C(F)(F)F)CC1
viability at 4 h, 0.1 µM [1]: 108%

CC(=O)Nc1ccc(-c2ccc(NC(=O)Nc3ccc(CN4CCN(C)CC4)c(C(F)(F)F)c3)c(F)c2)cn1
viability at 4 h, 0.1 µM [1]: 98.3% | inhibition [2]: 90.3% | CC50 at 4 h [4]: 3840 nM | IC50 [5]: 48 nM | selectivity ratio [6]: 80.3 | Activity [7]: Active; Compound Is Capable Of Binding To Nek7 | inhibition [8]: Active

CN1CCN(Cc2ccc(NC(=O)Nc3ccc(-c4ccnc(N)n4)cc3F)cc2C(F)(F)F)CC1
viability at 4 h, 0.1 µM [1]: 78% | inhibition [2]: 25.7%

CN1CCN(Cc2ccc(NC(=O)Nc3ccc(-c4c(N)ncc5ccccc45)cc3F)cc2C(F)(F)F)CC1
viability at 4 h, 0.1 µM [1]: 61.1%

CC(=O)Nc1ccc(-c2ccc(NC(=O)Nc3ccc(CN4CCN(C)CC4)cc3)c(F)c2)cn1
viability at 4 h, 0.1 µM [1]: 94.9%

CN1CCN(Cc2ccc(NC(=O)Nc3ccc(-c4cnc5cccnn45)cc3F)cc2C(F)(F)F)CC1
viability at 4 h, 0.1 µM [1]: 91.4% | inhibition [2]: -9.39%

CN1CCN(Cc2ccc(NC(=O)Nc3ccc(-c4nccnc4N)cc3F)cc2C(F)(F)F)CC1
viability at 4 h, 0.1 µM [1]: 107% | inhibition [2]: 28.2%

CC(C)(O)c1coc(S(=O)(=O)NC(=O)Nc2c3c(cc4c2CCC4)CCC3)c1
inhibition [2]: 66.7% | CC50 at 4 h [4]: > 10000 nM | IC50 [5]: 85 nM | selectivity ratio [6]: > 118

CN1CCN(Cc2ccc(NC(=O)Nc3ccc(-c4ccc(O)nc4)cc3F)cc2C(F)(F)F)CC1
viability at 4 h, 0.1 µM [1]: 106%
